Experimental data as given in PMC8837635, “Structural and functional analyses explain Pea KAI2 receptor diversity and reveal stereoselective catalysis during signal perception” (Communications Biology, 2022).

Experiments:
PsKAI2B [1] = biological target: T1, PsKAI2B (Lathyrus oleraceus, UniProt A0A8X6EGX8); assay: co-crystal structure with (–)-GR24 at […] Å; hydrolysis product trapped in catalytic site; MS +[…] Da adduct on H246; assay type: binding
T1 sequence (A0A8X6EGX8 1-270): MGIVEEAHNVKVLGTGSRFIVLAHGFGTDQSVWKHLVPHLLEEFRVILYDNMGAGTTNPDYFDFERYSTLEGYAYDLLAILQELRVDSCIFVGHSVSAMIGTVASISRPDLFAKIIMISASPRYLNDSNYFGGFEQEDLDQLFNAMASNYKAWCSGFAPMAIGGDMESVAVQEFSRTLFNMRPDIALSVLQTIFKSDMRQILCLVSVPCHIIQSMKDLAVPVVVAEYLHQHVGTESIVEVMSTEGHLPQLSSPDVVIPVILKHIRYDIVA

RMS3 = biological target: T2, RMS3 (Lathyrus oleraceus, UniProt A0A109QYD3); assay: hydrolysis by purified protein, UPLC-UV; assay type: biochemical
T2 sequence (A0A109QYD3 1-267): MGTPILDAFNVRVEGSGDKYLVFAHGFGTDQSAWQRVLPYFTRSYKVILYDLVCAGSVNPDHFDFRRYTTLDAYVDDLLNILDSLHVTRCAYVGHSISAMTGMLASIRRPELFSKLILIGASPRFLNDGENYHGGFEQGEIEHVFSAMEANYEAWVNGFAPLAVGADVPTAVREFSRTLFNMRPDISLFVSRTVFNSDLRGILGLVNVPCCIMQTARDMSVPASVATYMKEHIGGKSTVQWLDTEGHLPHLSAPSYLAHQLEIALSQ

AtD14 = biological target: T3, AtD14 (Arabidopsis thaliana, UniProt Q9SQR3); assay: hydrolysis by purified protein, UPLC-UV; assay type: biochemical
T3 construct: gene D14
T3 sequence (Q9SQR3 1-267): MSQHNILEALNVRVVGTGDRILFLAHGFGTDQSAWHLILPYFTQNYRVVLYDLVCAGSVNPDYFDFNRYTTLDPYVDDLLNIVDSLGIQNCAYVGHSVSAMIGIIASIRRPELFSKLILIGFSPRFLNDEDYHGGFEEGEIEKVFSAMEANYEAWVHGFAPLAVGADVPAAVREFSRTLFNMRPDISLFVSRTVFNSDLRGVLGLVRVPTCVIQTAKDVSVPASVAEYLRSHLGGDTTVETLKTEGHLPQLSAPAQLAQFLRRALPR

PsKAI2B [2] = biological target: T1, PsKAI2B; assay: intrinsic tryptophan fluorescence Kd; DSF shift; hydrolysis by UPLC; MS covalent adduct; assay type: binding
PsKAI2A = biological target: T4, PsKAI2A (Lathyrus oleraceus, UniProt A0A9D4YJ13); assay: intrinsic tryptophan fluorescence Kd; hydrolysis by UPLC; MS covalent adduct; assay type: binding
T4 construct: gene KIW84_024963; PsKAI2A.2 (272 aa)
T4 sequence (A0A9D4YJ13 1-264 limits assumed): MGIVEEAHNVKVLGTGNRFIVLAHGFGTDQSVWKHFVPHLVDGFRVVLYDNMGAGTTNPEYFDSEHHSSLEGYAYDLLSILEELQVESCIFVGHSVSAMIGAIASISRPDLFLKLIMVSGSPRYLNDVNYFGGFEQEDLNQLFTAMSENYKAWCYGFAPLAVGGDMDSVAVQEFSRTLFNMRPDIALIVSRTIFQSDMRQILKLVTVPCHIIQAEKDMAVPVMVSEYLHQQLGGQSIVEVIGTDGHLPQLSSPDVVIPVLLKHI

| Structure (SMILES) | co-crystal structure with (-)-GR24 at 2.0 Å; hydrolysis product trapped in catal (PsKAI2B [1]) | hydrolysis by purified protein, UPLC-UV (RMS3) | hydrolysis by purified protein, UPLC-UV (AtD14) | Kd (PsKAI2B [2]) | Kd (PsKAI2A) |
| --- | --- | --- | --- | --- | --- |
| CC1=CC(O)OC1=O [D-OH, 5-hydroxy-3-methylbutenolide] | 5-hydroxy-3-methylbutenolide (D-OH ring), resulting from the (–)-GR24 cleavage, is trapped in the catalytic site |  |  |  |  |
| CC1=C[C@@H](O/C=C2/C(=O)O[C@H]3c4ccccc4C[C@@H]23)OC1=O [(–)-GR24] |  | AtD14 and PsRMS3 (Pisum D14) similarly bind and hydrolyze both the isolated (–)- and (+)-GR24 stereoisomers | AtD14 and PsRMS3 (Pisum D14) similarly bind and hydrolyze both the isolated (–)- and (+)-GR24 stereoisomers | 89.4 ± 12.1 µM | 115 ± 9.87 µM |
